Laboratory results taken from patent publication US20140051664A1, “COMBINATION THERAPY OF HSP90 INHIBITORY COMPOUNDS WITH RADIOTHERAPY” (SYNTA PHARMACEUTICALS CORP., priority 2011, published 2014).

Key:
[1] = tested on: HeLaHL human cervical carcinoma tumor cells; assay: Nude mouse xenograft study: in vivo growth of HeLaHL tumors, Compound 1 with or without fractionated ionizing radiation; details: HeLaHL xenograft in Nude mice
Experimental: The human cervical carcinoma cancer cell line, HeLaHL, carrying a human Hsp70 promoter-luciferase reporter construct, was obtained from the laboratory of Dr. Richard Morimoto (Northwestern University, Evanston, Ill., USA). The cells were cultured in Dulbecco's Modified Eagle growth media prepared with 10% fetal bovine serum (FBS), 1% 100×HEPES, 1% 100× Penicillin-Streptomycin, 1% 100×L-glutamine, 1% 100× sodium pyruvate and 1% 100×MEM non-essential amino acids. FBS was obtained from American Type Culture Collection (Manassas, Va., USA) and all other reagents were obtained from Invitrogen Corp. (Carlsbad, Calif., USA). Cells that had been cryopreserved in liquid nitrogen were rapidly thawed at 37° C. and transferred to a tissue culture flask containing growth media and then incubated at 37° C. in a 5% CO2 incubator. To expand the cell line, cultures were passaged every 3 to 4 days by washing with 10 mL of room temperature phosphate buffered saline (PBS) and then disassociating cells by adding 5 mL 1× trypsin-EDTA until the cells detached from the surface of the flask. […]
Eight week old, female homozygous Crl:CD1-Foxn1^nu/nu (Nude) mice were obtained from Charles River Laboratories (Wilmington, Mass., USA). […] Cell concentration was determined using a hemocytometer. […] Tumor volumes (V) were calculated by caliper measurement of the width (W), length (L) and thickness (T) of tumors using the following formula: V=0.5236×(L×W×T).
HeLaHL tumors were then permitted to develop in vivo until the majority reached 90-240 mm^3 in tumor volume, which required approximately 2½ weeks following implantation. […] Animals were randomized into treatment groups so that the average tumor volumes of each group were similar at the start of dosing. % T/C values, as a measure of efficacy, were determined as follows: • (i) If ΔT>0: % T/C=(ΔT/ΔC)×100 • (ii) If ΔT<0: % T/C=(ΔT/T0)×100 • (iii) ΔT=Change in average tumor volume between start of dosing and the end of study. • (iv) ΔC=Change in average tumor volume between start of dosing and the end of study. • (v) T0=Average tumor volume at start of dosing. […]

[2] = Body weight and systemic toxicity in HeLaHL tumor-bearing Nude mice of the xenograft study; format: in vivo; details: for animals removed from the study due to >20% body weight loss: 8 mice/group; for average bodyweight change relative to the start of the study: over the course of the study
Experimental: Eight week old, female homozygous Crl:CD1-Foxn1^nu/nu (Nude) mice were obtained from Charles River Laboratories (Wilmington, Mass., USA). Animals were housed 4-5/cage in micro-isolators, with a 12 hr/12 hr light/dark cycle, acclimated for at least 1 week prior to use and fed normal laboratory chow ad libitum. Studies were conducted on animals at 10 weeks of age at implantation. To implant HeLaHL tumor cells into Nude mice, cell cultures were trypsinized as above and centrifuged to pellet the cells. The supernatant was aspirated and the cell pellet was resuspended at a concentration of 1×10^8 cells/mL in non-supplemented media. Cell concentration was determined using a hemocytometer. Using a 27 gauge needle and 1 cc syringe, 0.1 mL of the cell suspension was injected subcutaneously into the flanks of Nude mice. Tumor volumes (V) were calculated by caliper measurement of the width (W), length (L) and thickness (T) of tumors using the following formula: V=0.5236×(L×W×T).
To formulate Compound 1 in 10/18 DRD, stock solutions of Compound 1 were prepared by dissolving the appropriate amounts of the compound in dimethyl sulfoxide (DMSO) by sonication in an ultrasonic water bath. Stock solutions were prepared weekly, stored at −20° C. and diluted fresh each day for dosing. A solution of 20% Cremophor RH40 (polyoxyl 40 hydrogenated castor oil; BASF Corp., Aktiengesellschaft, Ludwigshafen, Germany) in 5% dextrose in water (D5W; Abbott Laboratories, North Chicago, Ill., USA) was also prepared by first heating 100% Cremophor RH40 at 50-60° C. until liquefied and clear, diluting 1:5 with 100% D5W, reheating again until clear and then mixing well. This solution was stored at room temperature for up to 3 months prior to use. To prepare 10/18 DRD formulations for daily dosing, DMSO stock solutions were diluted 1:10 with 20% Cremophor RH40. The final 10/18 DRD formulation for dosing contained 10% DMSO, 18% Cremophor RH40, 3.6% dextrose, 68.4% water and the appropriate amount of test article. Animals were intravenously (i.v.) injected with this formulation at 10 mL per kg body weight on one day each week (on the same day with one of the 3 weekly radiation doses) for a total of 4 doses.
Animals were irradiated using a calibrated ^137Cs gamma-ray (0.662 MeV) Model 30 Mark I irradiator (J. L. Shepherd & Associates, San Fernando, Calif., USA). Tumor-bearing animals were anesthetized for approximately 4 minutes with inhaled isoflurane (IsoFlo, Abbott Laboratories, North Chicago, Ill., USA) delivered on a stream of oxygen at 0.8 L/min and 3% volume/volume on a mobile anesthesia machine (VetEquip, Pleasanton, Calif., USA). […] Anesthetized animals were positioned in the irradiator approximately 2.5 cm in front of the ^137Cs source using a restraint device capable of holding 5 animals (J. L Shepherd & Associates). Ionizing radiation was focused on the subcutaneously implanted HeLaHL tumors through a 1 cm wide collimator (J. L. […]
The ability of Compound 1 to enhance the in vivo anti-tumor activity of ionizing radiation was investigated. Tumor-bearing animals (8 mice/group) were i.v. injected 1 time per week for a total of 4 doses (open arrowheads) with 10 mL/kg of 10/18 DRD vehicle with or without 150 mg/kg Compound 1. Animals were also irradiated 3 times per week for a total of 12 doses (closed arrowheads) with 2 Gy radiation. In the combination treatment group, animals were dosed with Compound 15 hr before being irradiated on days on which both treatments were delivered together. Each group that was not dosed with Compound 1 was instead dosed with 10/18 DRD vehicle as a mock treatment. Each group that was not irradiated was instead anesthetized and restrained as a mock irradiation. Average tumor volumes for each group were determined every 3-5 days (error bars represent +/−SEM). […]

In the case of CC(C)c1cc(-c2nnc(O)n2-c2ccc3c(ccn3C)c2)c(O)cc1O [Compound 1, 3-(2,4-dihydroxy-5-isopropyl-phenyl)-4-(1-methyl-indol-5-yl)-5-hydroxy-[1,2,4] triazole], the “% T/C value” ([1]; 150 mg/kg Compound 1 alone, i.v., 1 time per week, 4 doses, 10/18 DRD, mock irradiation) is reported as 28%, the “% T/C value” ([1]; 150 mg/kg Compound 1 i.v. 1 time per week combined with 2 Gy radiation 3 times per week (12 doses), Compound 1 dosed 5 hr before irradiation) is reported as −36% and the “% T/C value” ([1]; 150 mg/kg Compound 1 i.v. 1 time per week combined with 3-4 Gy radiation 3 times per week (4 Gy reduced to 3 Gy on Day 40), Compound 1 dosed 5 hr before irradiation) is reported as −73%. The “death due to excessive body weight loss” value ([2]; 2 Gy radiation combined with 150 mg/kg Compound 1, among the animals removed from the study) was “One of the animals removed later died on Day 45”, the “animals removed from the study due to >20% body weight loss” value ([2]; 2 Gy radiation combined with 150 mg/kg Compound 1, toxicity on Day 42) was 2/8 and the “animals removed from the study due to >20% body weight loss” value ([2]; 4 Gy radiation combined with 150 mg/kg Compound 1, toxicity on Day 34) was 1/8. For the same compound, the “average bodyweight change relative to the start of the study” value ([2]; Compound 1 150 mg/kg plus 2 Gy radiation 3 times per week) was 0.4%, the “average bodyweight change relative to the start of the study” value ([2]; Compound 1 150 mg/kg plus 3-4 Gy radiation 3 times per week) was 1.2% and the “average bodyweight change relative to the start of the study” value ([2]; Compound 1 alone, 150 mg/kg i.v. 1 time per week) was 3.2%.
